These compounds were tested on MM.1S cells (assay: MTS CellTiter 96 cell proliferation assay, MM.1S). Conditions: 0.1-10 μM, MTS assay, FIG. 1, compared with 8-amino adenosine.
Type: cell-based, human
Description: Cell viability was assessed by MTS assay as follows.
The MTS CellTiter 96 assay is a colorimetric method to assess the number of viable cells based on the conversion of a tetrazolium compound (MTS) to a formazan product by the mitochondrial dehydrogenase enzyme of the cells. This assay is used to determine the number of viable cells remaining following a drug treatment in comparison to the number of viable cells that are only treated with the drug vehicle (control cells). The amount of formazan product in the control cells is normalized to 100% and the amount of formazan in the drug treated cells is expressed as a percentage of control. This is used to generate dose response curve and estimate the drug concentration that produced a 50% decrease in the number of viable cells.

`Cc1ncnc2c1c(C(F)(F)F)cn2CC1CCNCC1` [NUCC-0000501] was tested, and the decreasing cell proliferation was “not effective in decreasing cell proliferation”.
For `Cc1ncnc2c1c(C(F)(F)F)cn2CC1CCN(C(=O)OC(C)(C)C)CC1` [NUCC-0000482], the decreasing cell proliferation was “not effective in decreasing cell proliferation”.

Same assay, conditions: Homo sapiens, MM1.S, MTS cell proliferation assay, read-out: Estimated IC50

Point of comparison: `Cc1c(C)n(CCN2CCOCC2)c2ncnc(Cl)c12` [NUCC-0000413], IC50 5 µM. Against it:
- FC(F)(F)c1cn(Cc2cccnc2)c2ncnc(Cl)c12 [NUCC-0000326] — 1.7-fold lower, 3 µM
- CS(=O)(=O)N1CCC(Cn2ccc3c(Cl)ncnc32)CC1 [NUCC-0000578] — the same, 5 µM
- COc1cccc(Cn2c(C)c(C)c3c(Cl)ncnc32)c1 [NUCC-0000409] — 3.3-fold lower, 1.5 µM
- CS(=O)(=O)N1CCC(Cn2ccc3c(Cl)nc(Cl)nc32)CC1 [NUCC-0000577] — the same, 5 µM
- FC(F)(F)c1cn(Cc2ccncc2)c2ncnc(Cl)c12 [NUCC-0000327] — the same, 5 µM
- Cc1c(C)n(CC2CCCCC2)c2ncnc(Cl)c12 [NUCC-0000359] — 2-fold higher, 10 µM
- Cc1cn(CC2CCN(C(=O)OC(C)(C)C)CC2)c2ncnc(Cl)c12 [NUCC-0054036] — 2.5-fold lower, 2 µM
- Clc1ncnc2c1c1c(n2Cc2ccccc2)CCCC1 [NUCC-0000308] — 2-fold higher, 10 µM
- CC(C)(C)OC(=O)N1CCC(Cn2ccc3c(Cl)nc(Cl)nc32)CC1 [NUCC-0000571] — the same, 5 µM
- FC(F)(F)c1cn(CC2CCNCC2)c2ncncc12 [NUCC-0000470] — 2-fold higher, 10 µM
- CS(=O)(=O)N1CCC(Cn2cc(C(F)(F)F)c3c(Cl)nc(N)nc32)CC1 [NUCC-0000576] — 1.7-fold lower, 3 µM
- OCCOCn1cc(C(F)(F)F)c2c(Cl)ncnc21 [NUCC-0050715] — the same, 5 µM
- Cc1cn(CC2CCN(S(C)(=O)=O)CC2)c2ncnc(Cl)c12 [NUCC-0054040] — 1.7-fold lower, 3 µM
- FC(F)(F)c1cn(CC2CCOCC2)c2ncnc(Cl)c12 [NUCC-0000329] — 1.7-fold lower, 3 µM
- CS(=O)(=O)N1CCC(Cn2c(C(F)(F)F)cc3c(Cl)ncnc32)CC1 [NUCC-0054151] — higher, > 10 µM
- COc1ccc(Cn2cc(C(F)(F)F)c3c(Cl)ncnc32)cc1 [NUCC-0054038] — 2.5-fold lower, 2 µM
- Cc1cn(CC2CCNCC2)c2ncnc(Cl)c12 [NUCC-0054039] — 5-fold lower, 1 µM
- Cc1c(C)n(Cc2ccc(F)cc2)c2ncnc(N)c12 [NUCC-0000375] — 2-fold higher, 10 µM
- Clc1nc(Cl)c2ccn(CC3CCNCC3)c2n1 [NUCC-0000575] — 1.7-fold lower, 3 µM
- FC(F)(F)c1cc2c(Cl)ncnc2n1CC1CCNCC1 [NUCC-0054150] — higher, > 10 µM
- FC(F)(F)c1c[nH]c2ncnc(Cl)c12 [NUCC-0054043] — within 1.5-fold, 7 µM
- Fc1ccc(Cn2cc(C(F)(F)F)c3c(Cl)ncnc32)cc1 [NUCC-0000325] — the same, 5 µM
- CC(C)(C)OC(=O)N1CCC(Cn2cc(C(F)(F)F)c3c(Cl)ncnc32)CC1 [NUCC-0000357] — 3.3-fold lower, 1.5 µM
- CC(=O)N1CCC(Cn2ccc3c(Cl)nc(Cl)nc32)CC1 [NUCC-0000595] — 1.7-fold lower, 3 µM
- CS(=O)(=O)N1CCC(Cn2cc(C(F)(F)F)c3c(Br)ncnc32)CC1 [NUCC-0000598] — 2.5-fold lower, 2 µM
- O=C(N1CCC(Cn2cc(C(F)(F)F)c3c(Cl)ncnc32)CC1)C(F)(F)F [NUCC-0000593] — the same, 5 µM
- Cc1c(C)n(Cc2ccccc2)c2ncnc(Cl)c12 [NUCC-0000280] — the same, 5 µM
- Fc1ccc(Cn2c3c(c4c(Cl)ncnc42)CCCC3)cc1 [NUCC-0000412] — 2-fold lower, 2.5 µM
- Cc1c(C)n(Cc2ccco2)c2ncnc(Cl)c12 [NUCC-0000363] — 2-fold higher, 10 µM
- Nc1nc(Cl)c2c(C(F)(F)F)cn(CC3CCNCC3)c2n1 [NUCC-0000570] — 1.7-fold lower, 3 µM
- FC(F)(F)c1cn(Cc2ccccc2)c2ncnc(Cl)c12 [NUCC-0000315] — 1.7-fold lower, 3 µM
- Cc1ncnc2c1cc(C)n2C1O[C@H](CO)[C@@H](O)[C@H]1O (stereo partly shown) [NUCC-0000477] — 1.6-fold higher, 8 µM
- FC(F)(F)c1cn(CCN2CCCC2)c2ncnc(Cl)c12 [NUCC-0000358] — 1.7-fold lower, 3 µM
- COCCn1c(C)c(C)c2c(Cl)ncnc21 [NUCC-0000361] — 2-fold higher, 10 µM
- Cc1c(C)n(Cc2ccccc2)c2ncnc(N)c12 [NUCC-0000362] — 2-fold higher, 10 µM
- COc1cccc(Cn2cc(C(F)(F)F)c3c(Cl)ncnc32)c1 [NUCC-0054037] — 2.5-fold lower, 2 µM
- NC(=O)N1CCC(Cn2cc(C(F)(F)F)c3c(Cl)ncnc32)CC1 [NUCC-0000469] — 2-fold higher, 10 µM
- Cc1c(C)n(Cc2ccc(F)cc2)c2ncnc(Cl)c12 [NUCC-0000360] — within 1.5-fold, 7 µM

Same assay, conditions: MTS cell proliferation assay

`Cc1ncnc2c1c(C(F)(F)F)cn2CC1CCNCC1` [NUCC-0000501] was tested, and the “Estimated IC50” value was “In- active”.
`Cc1ncnc2c1c(C(F)(F)F)cn2CC1CCN(C(=O)OC(C)(C)C)CC1` [NUCC-0000482] was tested, and the “Estimated IC50” value was “In- active”.

Each compound was assayed on acute leukemia cell lines (THP-1, K562, Kasumi-1, and U937) (assay: Inhibition of viability of acute leukemia cell lines). Conditions: THP-1, K562, Kasumi-1, U937; FIGS. 11-14.
Type: cell-based, human
Description: Compounds 381, 383, 409 (as test compounds) and Compound 501 (as a negative control) were administered to a variety of acute leukemia cell lines (THP-1. K562, Kasumi-1, and U937) in order to test their ability to inhibit cell growth as compared to 8-amino adenosine (8NH2-Ado) and 8-chloro adenosine (8Cl-Ado) (as positive controls) as in the previous Examples.

For `COc1cccc(Cn2c(C)c(C)c3c(Cl)ncnc32)c1` [NUCC-0000409], the cell viability was “reduce cell viability significantly”.

What follows are compounds tested on U937 cell lines (assay: Immunoblot of PARP cleavage and cleaved caspase 3). Conditions: U937 cell lysates, FIG. 17.
Type: cell-based, human
Description: FIG. 17. Immunoblot of cell lysates from U937 cell lines treated with Compounds 381, 383, 409 (as test compounds) and Compound 501 (as a negative control) as compared to 8-amino adenosine (8NH2-Ado) and 8-chloro adenosine (8Cl-Ado) (as positive controls). The impact of the compounds on proteins associated with cell death was assessed via performing an immunoblot. (See FIG. 17). PARP cleavage indicated activation of the caspase cascade and cell death by induction of apoptosis. Similarly detection of cleaved caspase 3 indicated activation of caspase activity and cell death by apoptosis. GAPDH was included as a loading control to indicate approximately equal loading of protein.

With `Nc1ncnc2c1nc(N)n2[C@@H]1O[C@H](CO)[C@@H](O)[C@H]1O` [Compound 8-NH2-Ado, 8-amino adenosine] the “induction of apoptosis (PARP cleavage, cleaved caspase 3)” value was “Induction of apoptosis was observed”.
With `Nc1ncnc2c1nc(Cl)n2[C@@H]1O[C@H](CO)[C@@H](O)[C@H]1O` [Compound 8-Cl-Ado, 8-chloro adenosine] the “induction of apoptosis (PARP cleavage, cleaved caspase 3)” value was “Induction of apoptosis was observed”.

— patent publication US9981968B2, “Substituted pyrrolo[2,3-d]pyrimidines for the treatment of cancer and proliferative disorders” (Northwestern University, priority 2013, dated 2018)
